Results published in paper PMC8247983 (Chemmedchem, 2021).

Target: hBChE (Homo sapiens, UniProt P06276)
Assay: Ellman's assay
Assay type: biochemical

Sequence of hBChE (P06276 29-602): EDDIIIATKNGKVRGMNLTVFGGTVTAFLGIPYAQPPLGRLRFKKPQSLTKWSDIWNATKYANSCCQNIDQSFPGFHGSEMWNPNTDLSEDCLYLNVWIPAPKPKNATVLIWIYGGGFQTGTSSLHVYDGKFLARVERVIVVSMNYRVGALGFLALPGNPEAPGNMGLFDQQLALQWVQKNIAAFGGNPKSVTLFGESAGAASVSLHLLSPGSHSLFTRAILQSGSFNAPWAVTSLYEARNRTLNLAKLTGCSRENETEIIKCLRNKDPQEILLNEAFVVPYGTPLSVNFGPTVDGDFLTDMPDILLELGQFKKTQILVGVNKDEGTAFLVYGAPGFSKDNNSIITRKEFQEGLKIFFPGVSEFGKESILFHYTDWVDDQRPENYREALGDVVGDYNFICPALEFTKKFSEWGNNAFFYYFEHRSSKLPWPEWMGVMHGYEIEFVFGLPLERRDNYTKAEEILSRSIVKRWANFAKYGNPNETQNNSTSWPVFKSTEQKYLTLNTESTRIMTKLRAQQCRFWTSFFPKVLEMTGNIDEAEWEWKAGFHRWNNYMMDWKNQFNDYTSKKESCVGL

For CN1c2ccc(OC(=O)NCCCCCCN3CCOC(CF)C3)cc2CN2CCc3ccccc3C21 (racemic) [compound 2, 13‐Methyl‐5,8,13,13a‐tetrahydro‐6H‐isoquinolino[1,2‐b]quinazolin‐10‐yl‐{6‐[2‐(fluoromethyl)morpholino]‐hexyl}carbamate], the IC50 was 66.6 nM.
